Data on eleven compounds can be found in PubChem BioAssay (NCI).

Values joined by “and” are separate entries in the source; they are usually repeats but may differ in a detail not shown here. Equal entries are not always repeated.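 Five compound concentrations were applied to cells in 96-well plates for 48 hours; endpoints were derived by simple linear interpolation of the resulting dose-response curve. Abbreviation: GI50, concentration required for 50% inhibition of growth. At the TGI there is no net growth.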

What all share (assay): NCI anticancer screen, dose series, 48 h
Experiment [1] relates to MOLT-4 leukemia.
In experiment [2] the test system is SW-620 colon.
In experiment [3] the test system is PC-3 prostate.
For experiment [4], the system named is HCT-15 colon.
Experiment [5] concerns TK-10 renal.
Experiment [6] relates to UO-31 renal.
The test system of experiment [7] is SNB-75 CNS.
In experiment [8] the test system is EKVX NSCLC.
Experiment [9] deals with SF-268 CNS.
Experiment [10] concerns CCRF-CEM leukemia.

On to `COc1ccc(OC)c(/C=C/C(=O)c2ccc3cc(OC)ccc3c2)c1`, for which the GI50 is 7.74 µM in experiment [1]; 6.71 µM in experiment [3]; 3.84 µM in experiment [5]; 1.78 µM in [7]; greater than 12.3 µM in experiment [8]; greater than 14.3 µM in experiment [9]. Further, the TGI is 26.1 µM in experiment [1]; greater than 50 µM in experiment [2]; greater than 50 µM in [3]; greater than 50 µM in [4]; greater than 50 µM in [5]; greater than 15.2 µM in experiment [6]. The TGI in experiment [7] is 4.53 µM; in experiment [8], greater than 50 µM; in experiment [9], greater than 50 µM.

`O=C(O)CSc1nnc2c3ccccc3c3ccccc3c2n1`: the TGI in experiment [2], in [3], in experiment [4], in experiment [5], in experiment [6] and in [7] was greater than 100 µM each time. The TGI in experiment [8] and in [9] was greater than 100 µM in each case.

As for `CCCNC(=O)Nc1ccc2c(c1)Cc1cc(N(CCCl)CCCl)ccc1-2`, the TGI is greater than 100 µM in experiment [2]; greater than 100 µM in experiment [3]; greater than 100 µM in [10]; greater than 100 µM in [4]; greater than 100 µM in experiment [5]; 82.2 µM in experiment [6]. In addition, the TGI in experiment [8] was 77.4 µM; in experiment [9], greater than 100 µM.

`CN(C)c1ccc(/C=N/NC(=O)c2cnc3ccccc3c2)cc1`: the TGI is greater than 100 µM in experiment [2]; greater than 100 µM in experiment [3]; greater than 100 µM in experiment [4]; greater than 100 µM in [5]; greater than 100 µM in experiment [6]; 50.6 µM in experiment [7]. In addition, the TGI is greater than 100 µM in [8] and 53.3 µM in experiment [9].

`COc1cc[nH]c1/C=C1\C(=O)Nc2ccc([N+](=O)[O-])c(N3CC[C@@H](O)C3)c21`: the GI50 in [1] is 0.142 µM; in experiment [2], 0.205 µM; in experiment [3] it was 0.235 µM; in [10], 0.0855 µM; in [4], 0.123 µM; in experiment [5] it was 0.512 µM. In addition, the GI50 in experiment [6] is 0.267 µM; in experiment [7], 0.0931 µM; in experiment [9], 0.255 µM. The TGI in experiment [1] was determined as 2.4 µM; in experiment [2] it was 9.49 µM; in [3], 2.15 µM; in experiment [10], 1.51 µM; in [4], 2.92 µM; in experiment [5] it was 1.61 µM. In addition, the TGI in experiment [6] worked out at 3.44 µM; in experiment [7], 0.989 µM; in experiment [9], 1.29 µM.

For the compound `CNCC1CCn2c(c(C3=C(c4cn(C)c5ccccc45)C(=O)NC3=O)c3ccccc32)C1` (centres undefined), the GI50 is 1.87 µM in experiment [1]; 2.04 µM in [2]; 2.39 µM in [3]; 2.89 µM in experiment [10]; 5.04 µM in experiment [4]; 2.78 µM in experiment [5]. The GI50 was 2.6 µM in [6], 0.972 µM in experiment [7] and 4.17 µM in experiment [9]. For the same compound, the TGI in experiment [1] was found to be 8.74 µM; in experiment [2], 5.6 µM; in [3] it was 8.79 µM; in experiment [10], 12 µM; in experiment [4], 16.5 µM; in experiment [5] it was 6.34 µM. Moreover, the TGI is 6.49 µM in experiment [6], 4.66 µM in experiment [7] and 8.97 µM in [9].

As to `C=C1C(OCCO)OC2O[C@]3(C)CCC4[C@H](C)CCC1C24OO3` (some centres undefined), the GI50 in experiment [1] is 1.96 µM; in [2] it was 10.9 µM; in experiment [3], 4.11 µM; in experiment [10], 4.92 µM; in experiment [4], 3.88 µM; in experiment [6] it was 2.78 µM. In addition, the GI50 in experiment [8] is 23.2 µM; in experiment [9], 43.4 µM. Besides, the TGI is 27.9 µM in experiment [1]; greater than 100 µM in experiment [2]; greater than 100 µM in experiment [3]; 28.4 µM in [10]; greater than 100 µM in [4]; 10.2 µM in [6]. Further, the TGI in experiment [8] and in experiment [9] was greater than 100 µM in each case.

Regarding `Nc1nc(N)c(-c2ccc(Cl)cc2)c(/C=C/c2ccc([N+](=O)[O-])cc2)n1`, the GI50 in [1] is 8.27 µM; in experiment [2], 4.08 µM; in experiment [3], 3.9 µM; in [10], 6.17 µM; in [4], 3.97 µM; in experiment [6], 21.4 µM. In addition, the GI50 in experiment [7] is 5 µM; in [9], 8.32 µM. The TGI in [1], in experiment [2], in [3], in experiment [10], in experiment [4] and in [6] was greater than 100 µM each time. Also, the TGI in experiment [7] stood at 34 µM; in experiment [9], 93.9 µM.

Turning to `CCC(=O)OCN1C(=O)C=CC1=O`, the GI50 in [1] was 3.32 µM; in experiment [4], 20.1 µM; in experiment [5], 15.6 µM; in experiment [6] it was 17.5 µM; in experiment [8], 16.8 µM; in [9] it was 19.1 µM. Further, the TGI in [2] was 3.58 µM and 4.43 µM; in experiment [3], 33.1 µM and 30.9 µM; in experiment [10] it was 1.84 µM; in [4] it was 39.7 µM and 56.8 µM; in [5], 29.3 µM and 18.4 µM; in experiment [6] it was 31.7 µM and 20.7 µM. Also, the TGI was 32.4 µM and 42.5 µM in experiment [8]; 36.9 µM and 41.3 µM in [9].

In the case of `COc1c(OC2OC(CO)C(O)C(O)C2O)cc2c(c1OC)-c1ccc(OC)c(=O)cc1[C@@H](NC(C)=O)CC2` (some centres undefined), the TGI in [1], in experiment [2], in [10], in experiment [4], in experiment [5] and in [6] was greater than 100 µM throughout. The TGI in [7] is 84.4 µM; in experiment [8], greater than 100 µM; in experiment [9], greater than 56.2 µM.

As to `O=C1OC(=O)C2C1C1C(c3ccccc3)=C(c3ccccc3)C2(O)C2C(=O)OC(=O)C12` (centres undefined), the TGI in experiment [1], in [2], in experiment [10], in experiment [4], in [5] and in [6] was greater than 100 µM in each case. In addition, the TGI in experiment [7], in experiment [8] and in experiment [9] was greater than 100 µM each time.
